Experiments:
[1] = test system: LPS-induced IL-8 release in d-U937 cells; test: LPS-induced IL-8 release in d-U937 cells; assay type: cell-based; conditions: Homo sapiens, dU937, 0.1 μg/mL LPS, 4 hr
Method: (§1) Cellular Potency as Determined by LPS-Induced TNFα/IL-8 Release in d-U937Cells
(§2) U937 cells, a human monocytic cell line, were differentiated to macrophage-type cells by incubation with phorbol myristate acetate (PMA; 100 ng/mL) for 48 to 72 hr. Cells were pre-incubated with final concentrations of test compound for 2 hr and were then stimulated with 0.1 μg/mL of LPS (from E. Coli: O111:B4, Sigma) for 4 hr. The supernatant was collected for determination of TNFα and IL-8 concentrations by sandwich ELISA (Duo-set, R&D systems). […] The relative 50% effective concentration (REC50) was determined from the resultant concentration-response curve. The inhibition of IL-8 production was calculated at each concentration of test compound by comparison with vehicle control. The 50% inhibitory concentration (IC50) was determined from the resultant concentration-response curve.

[2] = test system: Differentiated U937 cells; test: MTT assay: cell viability on exposure to test compounds; assay type: cell-based, human; conditions: percentage loss of cell viability vs vehicle, 1 μg/mL; for MTT Assay (Viability) 4 h d-U937: 5% FCS; for MTT Assay (Viability) 24 h d-U937: 10% FCS
Method: MTT Assay: Determination of Cell Viability on Exposure to Test Compounds
Differentiated U937 cells were pre-incubated with each test compound under two protocols: the first for 4 hr in 5% FCS and the second in 10% FCS for 24 h. The supernatant was replaced with 200 μL of new media and 10 μL of MTT stock solution (5 mg/mL) was added to each well. After incubation for 1 hr the media were removed, 200 μL of DMSO was added to each well and the plates were shaken lightly for 1 hr prior to reading the absorbance at 550 nm. The percentage loss of cell viability was calculated for each well relative to vehicle (0.5% DMSO) treatment. Consequently an apparent increase in cell viability for drug treatment relative to vehicle is tabulated as a negative percentage.

[3] = target: T1, Recombinant, phosphorylated p38 MAPKγ (MAPK12:Invitrogen) (Homo sapiens, UniProt P53778); test: p38 MAPKγ enzyme inhibition assay (FRET, Z-LYTE); assay type: biochemical; conditions: 2 hr pre-incubation, ATP 100 μM; read-out: Enzyme Inhibition IC50 p38γ
T1 construct: purchased Invitrogen
T1 sequence (P53778 1-367): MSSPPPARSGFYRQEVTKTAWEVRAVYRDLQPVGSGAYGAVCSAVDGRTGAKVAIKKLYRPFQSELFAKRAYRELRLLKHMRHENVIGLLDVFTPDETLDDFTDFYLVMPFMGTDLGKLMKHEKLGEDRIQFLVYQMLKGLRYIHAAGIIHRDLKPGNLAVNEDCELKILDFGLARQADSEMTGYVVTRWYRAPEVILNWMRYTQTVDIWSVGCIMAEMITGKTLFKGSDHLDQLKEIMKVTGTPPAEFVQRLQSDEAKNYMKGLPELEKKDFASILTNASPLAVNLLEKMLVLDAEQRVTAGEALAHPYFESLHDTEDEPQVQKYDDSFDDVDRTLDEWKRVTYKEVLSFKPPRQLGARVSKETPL
Method: (§3) The enzyme inhibitory activities of compounds disclosed herein were determined by fluorescence resonance energy transfer (FRET) using synthetic peptides labelled with both donor and acceptor fluorophores (Z-LYTE, Invitrogen Ltd., Paisley, UK). Recombinant, phosphorylated p38 MAPKγ (MAPK12:Invitrogen) was diluted in HEPES buffer, mixed with the test compound at the desired final concentrations and incubated for 2 hr at RT. The FRET peptide (2 μM) and ATP (100 μM) were added to the enzyme/compound mixture and incubated for 1 hr. Development reagent (protease) was added for 1 hr prior to detection in a fluorescence microplate reader (Varioskan® Flash, ThermoFisher Scientific). The site-specific protease cleaves non-phosphorylated peptide only and eliminates the FRET signal. Phosphorylation levels of each reaction were calculated using the ratio of coumarin emission (donor) over fluorescein emission (acceptor) for which high ratios indicate high phosphorylation and low ratios indicate low phosphorylation levels.

[4] = test system: Poly I:C-induced ICAM-1 expression in BEAS2B cells; test: Poly I:C-induced ICAM-1 induction in BEAS2B cells; assay type: cell-based; conditions: Homo sapiens, BEAS-2B, poly I:C 1 μg/mL, 18 hr, read-out: PolyI:C/ICAM1 IC50 BEAS2B
Method: Cellular Potency as Determined by Poly I:C-Induced ICAM-1 Induction in BEAS2B Cells
Poly I:C (1 μg/mL) (Invivogen Ltd., San Diego, Calif.) was transfected into BEAS2B cells (human bronchial epithelial cells, ATCC) with Oligofectamine (Invitrogen, Carlsbad, Calif.). Cells were pre-incubated with final concentrations of test compounds for 2 hr and the level of ICAM1 expression on the cell surface was determined by cell-based ELISA. At a time point 18 hr after poly I:C transfection, cells were fixed with 4% formaldehyde in PBS and then endogenous peroxidase was quenched by the addition of 0.1% sodium azide and 1% hydrogen peroxide. Cells were washed with wash-buffer (0.1% Tween in PBS: PBS-Tween). and after blocking the wells with 5% milk in PBS-Tween for 1 hr, the cells were incubated with anti-human ICAM-1 antibody (Cell Signaling Technology, Danvers, Mass.) in 1% BSA PBS overnight at 4° C. The cells were washed with PBS-Tween and incubated with the secondary antibody (HRP-conjugated anti-rabbit IgG, Dako Ltd., Glostrup, Denmark). The ICAM-1 signal was detected by adding substrate and reading the absorbance at 450 nm against a reference wavelength of 655 nm using a spectrophotometer. The cells were then washed with PBS-Tween and total cell numbers in each well were determined by reading absorbance at 595 nm after Crystal Violet staining and elution by 1% SDS solution. The measured OD 450-655 readings were corrected for cell number by dividing with the OD595 reading in each well. The inhibition of ICAM-1 expression was calculated at each concentration of test compound by comparison with vehicle control. The 50% inhibitory concentration (IC50) was determined from the resultant concentration-response curve.

[5] = test system: LPS-induced TNFα release in THP-1 cells; test: LPS-induced TNFα release in THP-1 cells; assay type: cell-based; conditions: Homo sapiens, 3 μg/mL LPS, 4 hr
Method: Cellular Potency as Determined by LPS-Induced TNFα Release in THP-1 Cells
THP-1 cells, a human monocytic cell line, were stimulated with 3 μg/mL of LPS (from E. Coli; 0111:B4, Sigma) for 4 hr and the supernatant collected for determination of the TNFα concentration by sandwich ELISA (Duo-set, R&D systems). The inhibition of TNFα production was calculated at each concentration by comparison with vehicle control. The 50% inhibitory concentration (IC50) was determined from the resultant concentration-response curve.

[6] = test system: LPS-induced TNFα release in d-U937 cells; test: LPS-induced TNFα release in d-U937 cells; assay type: cell-based; conditions: Homo sapiens, dU937, 4 h; read-out: LPS/TNFα REC50 d-U937
Method: as §1, §2

[7] = target: T2, p38 MAPKα isoform (MAPK14: Invitrogen) (Homo sapiens, UniProt Q16539); test: p38 MAPKα enzyme inhibition assay (FRET, Z-LYTE, via MAPKAP-K2 activation); assay type: biochemical; conditions: 2 hr pre-incubation, ATP 10.0 μM; read-out: Enzyme Inhibition IC50 p38α
T2 construct: purchased Invitrogen
T2 sequence (Q16539 whole entry, canonical isoform): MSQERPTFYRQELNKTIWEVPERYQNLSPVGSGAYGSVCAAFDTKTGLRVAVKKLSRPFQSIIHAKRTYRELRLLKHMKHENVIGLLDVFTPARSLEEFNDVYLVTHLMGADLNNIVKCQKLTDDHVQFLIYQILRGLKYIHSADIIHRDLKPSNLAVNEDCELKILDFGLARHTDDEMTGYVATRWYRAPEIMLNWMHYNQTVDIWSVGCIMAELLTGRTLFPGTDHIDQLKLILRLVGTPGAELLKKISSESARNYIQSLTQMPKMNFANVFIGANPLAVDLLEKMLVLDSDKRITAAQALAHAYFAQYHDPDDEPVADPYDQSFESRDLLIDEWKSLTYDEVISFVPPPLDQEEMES
Method: as §3
For the p38 MAPKα isoform (MAPK14: Invitrogen), enzyme activity was evaluated indirectly by determining the level of activation/phosphorylation of the down-stream molecule, MAPKAP-K2. The p38 MAPKα protein was mixed with the test compound for 2 hr at RT. […] Development reagent was then added and the mixture incubated for 1 hr before detection by fluorescence completed the assay protocol.

| Structure (SMILES) | IC50 [1] [nM] | IC50 [3] [nM] | IC50 [5] [nM] | EC50 [6] [nM] | IC50 [7] [nM] | MTT Assay (Viability) 4 h d-U937 [2] [%] | MTT Assay (Viability) 24 h d-U937 [2] [%] | IC50 [4] [nM] |
| --- | --- | --- | --- | --- | --- | --- | --- | --- |
| COCC(=O)Nc1cc(Oc2ccc(NC(=O)Nc3cc(C(C)(C)C)nn3-c3ccc(NS(C)(=O)=O)cc3)c3ccccc23)ccn1 [Example 2, N-(4-(4-(3-(3-tert-Butyl-1-(4-(methylsulfonamido)phenyl)-1H-pyrazol-5-yl)ureido)naphthalen-1-yloxy)pyridin-2-yl)-2-methoxyacetamide] | 7.2 | 42.3 | 1.3 | 0.4 | 13 | −13.2 | 15.1 | 4.1 |
| COc1ccc(-n2nc(C(C)(C)C)cc2NC(=O)Nc2ccc(Oc3ccnc(NC(=O)CO)c3)c3ccccc23)cc1 [Example 4, N-(4-(4-(3-(3-tert-Butyl-1-(4-methoxyphenyl)-1H-pyrazol-5-yl)ureido)naphthalen-1-yloxy)pyridin-2-yl)-2-hydroxyacetamide] | 3 | 150 | 1.3 | 0.04 | 4.6 | −3.9 | −38.2 | 4 |
| COCC(=O)Nc1cc(Oc2ccc(NC(=O)Nc3cc(C(C)(C)C)nn3-c3ccc(O)cc3)c3ccccc23)ccn1 [Example 5, N-(4-((4-(3-(3-(tert-Butyl)-1-(4-hydroxyphenyl)-1H-pyrazol-5-yl)ureido)naphthalen-1-yl)oxy)pyridin-2-yl)-2-methoxyacetamide] | 0.7 | 88.9 | 0.4 | 0.66 | 1.7 | 4.5 | −19.9 | 6.7 |
| CN(C)C(=O)Nc1cc(Oc2ccc(NC(=O)Nc3cc(C(C)(C)C)nn3-c3ccc(S(C)(=O)=O)cc3)c3ccccc23)ccn1 [Example 15, 3-(4-(4-(3-(3-tert-Butyl-1-(4-(methylsulfonyl)phenyl)-1H-pyrazol-5-yl)ureido)naphthalen-1-yloxy)pyridin-2-yl)-1,1-dimethylurea] | 2.4 | 81.5 | 1.5 | – | 23.6 | −15.4 | −66.2 | 16.3 |
| COCC(=O)Nc1cc(Oc2ccc(NC(=O)Nc3cc(C4(C)CC4)nn3-c3ccc(C)cc3)c3ccccc23)ccn1 [Example 25, 2-methoxy-N-(4-(4-(3-(3-(1-methylcyclopropyl)-1-p-tolyl-1H-pyrazol-5-yl)ureido)naphthalen-1-yloxy)pyridin-2-yl)acetamide] | 0.7 | 3010 | 0.9 | – | 3.4 | −7.6 | 4.7 | 21.8 |
| COCC(=O)Nc1cc(Oc2ccc(NC(=O)Nc3cc(C(C)(C)C)nn3-c3ccc(CO)c(OC)c3)c3ccccc23)ccn1 [Example 51, N-(4-(4-(3-(3-tert-butyl-1-(4-(hydroxymethyl)-3-methoxyphenyl)-1H-pyrazol-5-yl)ureido)naphthalen-1-yloxy)pyridin-2-yl)-2-methoxy acetamide] | 38.7 | 149 | 1.6 | – | 11.9 | −5.2 | 61.0 | 2.5 |

More lines, in order of falling IC50 [1], values ahead:

| IC50 [1] [nM] | IC50 [3] [nM] | IC50 [5] [nM] | EC50 [6] [nM] | IC50 [7] [nM] | Structure (SMILES) | MTT Assay (Viability) 4 h d-U937 [2] [%] | MTT Assay (Viability) 24 h d-U937 [2] [%] | IC50 [4] [nM] |
| --- | --- | --- | --- | --- | --- | --- | --- | --- |
| 3.3 | 58.2 | 1.5 | 1.9 | 15.5 | COCC(=O)Nc1cc(Oc2ccc(NC(=O)Nc3cc(C(C)(C)C)nn3-c3ccc(OC)cc3)c3ccccc23)ccn1 [Example 3, N-(4-((4-(3-(3-(tert-Butyl)-1-(4-methoxyphenyl)-1H-pyrazol-5-yl)ureido)naphthalen-1-yl)oxy)pyridin-2-yl)-2-methoxyacetamide] | −28.4 | −51.5 | 5.7 |
| 2.6 | 51.3 | 1.2 | 19.4 | 17.8 | COc1ccc(-n2nc(C(C)(C)C)cc2NC(=O)Nc2ccc(Oc3ccnc(NC(=O)NC4CC4)c3)c3ccccc23)cc1 [Example 6, 1-(3-(tert-Butyl)-1-(4-methoxyphenyl)-1H-pyrazol-5-yl)-3-(4-(2-(3-cyclopropylureido)pyridin-4-yloxy)naphthalen-1-yl)urea] | −10.7 | −50.1 | 1 |
| 1.9 | 324 | 1.6 | – | 11.3 | CC(C)(C)c1cc(NC(=O)Nc2ccc(Oc3ccnc(NC(=O)N4CCCC4)c3)c3ccccc23)n(-c2ccc(O)cc2)n1 [Example 35, N-(4-(4-(3-(3-tert-butyl-1-(4-hydroxyphenyl)-1H-pyrazol-5-yl)ureido)naphthalen-1-yloxy)pyridin-2-yl)pyrrolidine-1-carboxamide] | −15.4 | −41.3 | 2.1 |
| 1 | 72.4 | 1 | 0.6 | 0.9 | COCC(=O)Nc1cc(Oc2ccc(NC(=O)Nc3cc(C(C)(C)C)nn3-c3ccc(N)cc3)c3ccccc23)ccn1 [Example 1, N-(4-(4-(3-(1-(4-Aminophenyl)-3-tert-butyl-1H-pyrazol-5-yl)ureido)naphthalen-1-yloxy)pyridin-2-yl)-2-methoxyacetamide] | −26.6 | 78.0 | 8.3 |
| 0.5 | 55 | 0.6 | – | 6.6 | COCC(=O)Nc1cc(Oc2ccc(NC(=O)Nc3cc(C(C)(C)C)nn3-c3cccs3)c3ccccc23)ccn1 [Example 56, N-(4-(4-(3-(3-tert-butyl-1-(thiophen-2-yl)-1H-pyrazol-5-yl)ureido)naphthalen-1-yloxy)pyridin-2-yl)-2-methoxyacetamide] | 4.8 | 43.1 | 13.4 |

Source: patent publication US9024041B2, “P38 MAP kinase inhibitors” (Respivert Ltd., priority 2010, dated 2015)
